Patent US20070037887A1, “Blockade of mtor to prevent a hormonal adaptive response” (University of Virginia Patent Foundation, priority 2003, published 2007)

What was measured:
LTED cells = test: Apoptosis ELISA (Cell Death Detection Kit), LTED cells; assay type: cell-based, human; conditions: three day treatment
Protocol: (§1) FIG. 6 is a bar graph portraying data representing the induction of apoptosis in MCF-7 and LTED cells by FTS. Eighty thousand MCF-7 and LTED cells were plated into each well of 12-well plates in their culture media. Two days later, the cells were treated with FTS for 3 days. Apoptosis was measured using a Cell Death Detection Kit from Roche Molecular Biochemicals. Parallel plates subjected to identical treatment were prepared for cell counting. The results were expressed as the values of optical density at 405 nm per 10,000 cells.
(§2) Applicants postulated that these cells might also have become sensitized to the pro-apoptotic effects of estradiol. To test this hypothesis, an ELISA assay was used to assess apoptosis and to compare the effects of estradiol in wild-type and LTED cells. […] The presence of apoptosis in LTED cells was confirmed by the measurement of annexin V and the use of time-lapse microscopy.
(§3) The effect of a three day treatment with FTS on apoptosis in MCF-7 and LTED cells was examined using the ELISA assay for quantitation. […] LTED cells were much more sensitive than MCF-7 cells to the apoptotic effects of FTS.

MCF-7 cells [1] = test: Growth of MCF-7 cells (cell number); assay type: cell-based, human
Protocol: FIG. 3 represents the effect of FTS on the growth of MCF-7, LTED, and MCF-10A cells. Sixty thousand cells were plated into each well of 6-well plates. Two days later, the cells were treated in triplicate for five days with FTS at indicated concentrations. The results (mean±S.E.) are expressed as percentage of the vehicle control.
FIG. 4 represents the effect of FTS on E2 stimulated growth of MCF-7 and LTED cells. Thirty thousand cells were plated into each well of 6-well plates. Two days later, the cells were re-fed with IMEM containing 5% DCC-FBS. After another two days, cells were treated in triplicate with estradiol (10^−10 M) plus various concentrations of FTS for five days. In LTED cells, fulvestrant (10^−9 M) was included in all wells to block the effect of residual estrogen in the culture. The results (mean±S.E.) are expressed as percentage of cell number from the wells containing E2.
The effect of FTS on growth of breast cancer cells was examined in two different cell lines: MCF-7 wild type cells which represent a model for untreated breast cancer and LTED cells as a model of cells adapting to endocrine treatment. Cells were grown in their culture media and treated with FTS for five days. […] The effect of FTS on E2-stimulated growth of MCF-7 and LTED cells was the examined. Five-day treatment of MCF-7 cells with E2 (10^−10 M) increased cell number by 8-fold compared with the vehicle control. Addition of FTS reduced cell number in a dose-dependent manner with about 50% inhibition at the concentration of 50 μM […]. […] The extent of inhibition of E2-stimulated cell growth by FTS was similar in these two cell lines.

PHAS-I = PHAS-I phosphorylation in 293T cells (SDS-PAGE mobility, PThr36/45 immunoblot); assay type: cell-based; conditions: increasing concentrations, 1 h
Protocol: (§4) FIG. 11A & 11B represent data showing FTS inhibits PHAS-I phosphorylation and promotes dissociation of the mTOR-raptor complex in 293T cells. 293T cells were transfected with pcDNA3AU1-mTOR, pcDNA33HARaptor, pcDNA33HA-mLST8, and pCMV-Tag3APHAS-I (FIG. 11A). After 18 h the cells were incubated for 1 h with increasing concentrations of FTS before extracts were prepared. A sample of each extract was subjected to SDS-PAGE and immunoblotted to detect PHAS-I or PThr^36/45. AU1-mTOR was also immunoprecipitated from each extract, and immune complexes were subjected to SDSPAGE and immunoblotted with mTAb2, to detect mTOR, and with anti-HA antibodies, to detect HA-mLST8 and HA-raptor. Nontransfected 293T cells were incubated with increasing concentrations of FTS for 1 h before extracts were prepared. mTOR was immunoprecipitated with mTAb1, and samples were subjected to SDS-PAGE.
To investigate the effects of FTS on mTOR function in 293T cells, changes in the phosphorylation of PHAS-I, a well characterized target of mTOR were monitored. Phosphorylation of Ser64 and Thr69 in PHAS-I causes a dramatic decrease in the mobility of the protein in SDS-PAGE, so that changes in the mobility provide an index of changes in phosphorylation state. […]

mTOR-mLST8 = target: T1, mTOR-mLST8 (Homo sapiens, UniProt P42345+Q9BVC4); test: Coimmunoprecipitation of mLST8 with mTOR from 293T cells incubated with compound; assay type: cell-based; conditions: nontransfected 293T cells; much less pronounced than effect on raptor
T1 construct: expressed in transfected cells; host or cells: 293T
T1 sequence (Q9BVC4 whole entry, other chains not shown): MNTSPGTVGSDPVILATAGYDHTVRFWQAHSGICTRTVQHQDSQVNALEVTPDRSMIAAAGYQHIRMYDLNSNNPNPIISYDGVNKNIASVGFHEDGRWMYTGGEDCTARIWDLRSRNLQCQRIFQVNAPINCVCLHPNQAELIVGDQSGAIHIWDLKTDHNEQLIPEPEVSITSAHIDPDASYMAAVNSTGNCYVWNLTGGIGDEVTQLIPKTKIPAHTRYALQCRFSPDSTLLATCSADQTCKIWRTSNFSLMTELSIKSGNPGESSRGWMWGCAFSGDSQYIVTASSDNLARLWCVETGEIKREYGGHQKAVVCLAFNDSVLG
Protocol: as §4
FIGS. 12A & 12B represent data showing the effects of incubating cells with increasing concentrations of FTS and GTS on mTOR activity and mTOR association with raptor and mLST8. AU1-mTOR, HA-raptor, and HAmLST8 were overexpressed in 293T cells. The cells were then incubated for 1 h with increasing concentrations of FTS (●, ▴, ▪) or GTS (∘, Δ, □) before extracts were prepared. Immunoprecipitations were then conducted with anti-AU1 antibodies. mTOR kinase activity (●, ∘) was determined by measuring ^32P incorporation into [His^6]PHAS-I in immune complex kinases assays performed with [γ-^32P]ATP. The relative amounts of HA-raptor (▴, Δ) and HA-mLST8 (▪, □) that coimmunoprecipitated with AU1-mTOR were determined after immunoblotting with anti-HA antibodies. The results (mean values±S.E. from 3 experiments) are expressed as percentages of the mTOR activity (FIG. 12A) or coimmunoprecipitating proteins (FIG. 12B) from samples incubated without FTS or GTS, and have been corrected for the amounts of AU1-mTOR immunoprecipitated.
To investigate further the inhibitory effects of FTS on mTOR signaling, the effect of the drug on the association of mTOR, raptor, and mLST8 was determined. […]

MCF-7 cells [2] = test: Apoptosis ELISA (Cell Death Detection Kit), MCF-7 cells; assay type: cell-based, human; conditions: three day treatment
Protocol: as §1, §2, §3

SMILES: CC(C)=CCC/C(C)=C/CC/C(C)=C/CSc1ccccc1C(=O)O [FTS, farnesylthiosalicylic acid]
- induction of apoptosis (LTED cells; FTS 75 μM): dramatic increase in apoptosis
- induction of apoptosis (LTED cells; FTS 20 and 50 μM): did not induce apoptosis
- inhibition at 50 µM (MCF-7 cells [1]; Homo sapiens, MCF7, 120 h, read-out: inhibition of E2-stimulated growth (cell number)): ~50%
- basal growth (MCF-7 cells [1]; culture media, five days): dose-dependently inhibited
- phosphorylation of PHAS-I (electrophoretic mobility) (PHAS-I): decreased the phosphorylation
- reactivity of PHAS-I with PThr36/45 phosphospecific antibodies (PHAS-I): markedly decreased
- amount of endogenous mLST8 that coimmunoprecipitated with mTOR (mTOR-mLST8): also decreased
- induction of apoptosis (MCF-7 cells [2]; FTS 75 μM): dramatic increase in apoptosis
- induction of apoptosis (MCF-7 cells [2]; FTS 20 and 50 μM): did not induce apoptosis
